Source: ChEMBL document CHEMBL5226312, “Structural Evolution and Translational Potential for Agonists and Antagonists of Endosomal Toll-like Receptors” (J Med Chem, 2021)
One block for each molecule: values may come before it.

How the values were obtained:
[1] = target: T1, Toll-like receptor 8 (Homo sapiens, UniProt Q9NR97); experiment: Agonist activity at human TLR8 stably expressed in human HEK-Blue hTLR8 cells assessed as activation of NFkappaB by SAP reporter gene based spectrophotometric assay; assay type: cell-based
T1 sequence (Q9NR97 whole entry): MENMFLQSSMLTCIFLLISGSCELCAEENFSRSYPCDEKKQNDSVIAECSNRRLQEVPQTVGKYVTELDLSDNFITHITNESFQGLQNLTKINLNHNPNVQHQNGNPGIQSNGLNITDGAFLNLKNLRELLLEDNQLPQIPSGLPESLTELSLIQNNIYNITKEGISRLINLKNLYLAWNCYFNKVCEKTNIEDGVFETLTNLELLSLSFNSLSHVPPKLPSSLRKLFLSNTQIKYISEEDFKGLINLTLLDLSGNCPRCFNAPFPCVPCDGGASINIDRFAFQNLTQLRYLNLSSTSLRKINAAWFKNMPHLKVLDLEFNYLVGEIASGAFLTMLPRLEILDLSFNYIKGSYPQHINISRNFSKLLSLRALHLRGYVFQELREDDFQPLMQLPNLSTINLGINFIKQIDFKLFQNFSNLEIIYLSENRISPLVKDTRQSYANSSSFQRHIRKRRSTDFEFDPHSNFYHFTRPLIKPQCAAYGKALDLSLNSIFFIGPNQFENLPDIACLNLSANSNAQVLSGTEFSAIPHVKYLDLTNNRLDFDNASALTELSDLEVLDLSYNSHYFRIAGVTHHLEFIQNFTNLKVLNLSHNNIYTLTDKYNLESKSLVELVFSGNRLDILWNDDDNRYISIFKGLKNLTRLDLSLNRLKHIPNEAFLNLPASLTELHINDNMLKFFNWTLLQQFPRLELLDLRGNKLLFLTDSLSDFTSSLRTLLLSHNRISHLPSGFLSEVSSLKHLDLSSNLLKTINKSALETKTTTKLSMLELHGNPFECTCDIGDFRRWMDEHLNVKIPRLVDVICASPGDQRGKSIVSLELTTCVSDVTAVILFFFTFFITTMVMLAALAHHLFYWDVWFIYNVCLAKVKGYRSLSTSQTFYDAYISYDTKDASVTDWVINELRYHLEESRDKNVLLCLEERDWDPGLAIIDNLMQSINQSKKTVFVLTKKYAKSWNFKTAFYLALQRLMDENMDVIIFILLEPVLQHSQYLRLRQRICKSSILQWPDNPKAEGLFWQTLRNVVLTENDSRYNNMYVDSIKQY

[2] = Antagonist activity at mouse CpG-oligonucleotide in mouse WEHI-231 cells assessed as inhibition of CpG-oligonucleotide induced thymidine uptake in presence of anti-serum IgM; assay type: cell-based; settings: WEHI231
[3] = target: T2, Toll-like receptor 7 (Homo sapiens, UniProt Q9NYK1); experiment: Agonist activity at human TLR7
T2 sequence (Q9NYK1 whole entry): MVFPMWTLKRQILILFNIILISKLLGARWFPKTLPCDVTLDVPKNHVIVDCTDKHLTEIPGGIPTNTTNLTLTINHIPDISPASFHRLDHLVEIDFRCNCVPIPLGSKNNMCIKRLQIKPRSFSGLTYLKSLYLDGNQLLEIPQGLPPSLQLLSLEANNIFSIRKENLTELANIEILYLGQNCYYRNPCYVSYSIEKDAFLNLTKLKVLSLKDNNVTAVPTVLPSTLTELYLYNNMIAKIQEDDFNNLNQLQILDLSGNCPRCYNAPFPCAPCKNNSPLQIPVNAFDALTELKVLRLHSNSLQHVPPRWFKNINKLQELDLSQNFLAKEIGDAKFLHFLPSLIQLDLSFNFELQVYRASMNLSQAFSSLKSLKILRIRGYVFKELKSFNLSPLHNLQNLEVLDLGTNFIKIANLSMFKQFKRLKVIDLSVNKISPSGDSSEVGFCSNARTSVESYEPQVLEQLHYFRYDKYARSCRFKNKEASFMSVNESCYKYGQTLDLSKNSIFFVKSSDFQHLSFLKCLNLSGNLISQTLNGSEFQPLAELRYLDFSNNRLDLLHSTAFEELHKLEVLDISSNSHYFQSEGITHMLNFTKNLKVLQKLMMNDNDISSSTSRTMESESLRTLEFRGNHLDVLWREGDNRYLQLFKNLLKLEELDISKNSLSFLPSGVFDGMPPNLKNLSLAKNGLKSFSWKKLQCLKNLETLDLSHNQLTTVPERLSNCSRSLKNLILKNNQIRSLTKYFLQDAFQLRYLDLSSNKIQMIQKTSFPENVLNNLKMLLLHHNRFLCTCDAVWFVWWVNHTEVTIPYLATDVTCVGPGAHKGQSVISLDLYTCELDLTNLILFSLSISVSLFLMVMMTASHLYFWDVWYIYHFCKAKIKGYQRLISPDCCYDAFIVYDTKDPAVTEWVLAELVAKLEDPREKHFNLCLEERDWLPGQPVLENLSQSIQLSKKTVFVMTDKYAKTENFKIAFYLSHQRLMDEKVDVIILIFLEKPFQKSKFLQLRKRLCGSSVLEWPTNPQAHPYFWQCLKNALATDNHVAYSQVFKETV

[4] = Antagonist activity at monkey TLR7 expressed in Drosophila S2 cells by ITC analysis; design: species or system Macaca mulatta
[5] = tested on: Splenocyte; experiment: Induction IFN production in C3H/HeJ mouse Splenocytes measured after 18 hrs; assay type: functional; settings: read-out: MEC
[6] = Antagonist activity at mouse CpG-oligonucleotide in mouse WEHI-231 cells assessed as inhibition of CpG-oligonucleotide induced thymidine uptake preincubated for 16 hrs followed by 3H-thymidine addition and measured after 4 hrs in presence of anti-serum IgM by radioactivity analysis; assay type: cell-based; settings: WEHI231

EC50 [2]: 9.1 nM
SMILES: CN(C)CCNc1cc(-c2ccc3ccccc3c2)nc2ccccc12

EC50 [3]: 2210 nM
SMILES: CC(C)Cn1cnc2c(N)nc3ccccc3c21 [IMIQUIMOD]

EC50 [2]: 51.3 nM
SMILES: CCN(CC)CCCC(C)Nc1cc(-c2ccccc2)nc2ccccc12 (centres undefined)

EC50 [2]: 0.24 nM
SMILES: CN1CCN(Cc2cc(Nc3cc(-c4ccc5ccccc5c4)nc4ccccc34)cc(CN3CCN(C)CC3)c2O)CC1

EC50 [6]: 58 nM
SMILES: CN1CCN(Cc2ccc(-c3cc(N4CCN(C)CC4)c4ccccc4n3)cc2)CC1

EC50 [6]: 0.76 nM
SMILES: CN(C)CCNc1cc(-c2ccc(N3CCN(C)CC3)cc2)nc2ccccc12

EC50 [6]: 7.07 nM
SMILES: CN(C)CCNc1cc(-c2ccc(CN3CCN(C)CC3)cc2)nc2ccccc12

Continued, molecule first:

SMILES: CCCCc1nc2c(N)nc3ccccc3c2s1
EC50 [1]: 410 nM

SMILES: CCOc1nc(N)c2nc(-c3cncc(F)c3)n(Cc3ccc(CN4C[C@H]5C[C@@H]4CN5C)cc3)c2n1
IC50 [4]: 25 nM

SMILES: CCCCOc1nc(N)c2[nH]c(=O)n(Cc3ccccc3)c2n1
minimal effective concentration [5]: 0.001 µM

SMILES: CCOc1nc(C)c2nc(-c3cncc(F)c3)n(Cc3ccc(CN4C[C@H]5C[C@@H]4CN5C)cc3)c2n1
IC50 [4]: 25 nM

SMILES: CCCCCc1nc(N)c2[nH]c(=O)n(Cc3ccccc3)c2n1
minimal effective concentration [5]: 0.01 µM

SMILES: CCN(CC)CCCC(C)Nc1ccnc2cc(Cl)ccc12 (centres undefined) [CHLOROQUINE]
EC50 [2]: 110 nM

SMILES: CCCCOc1nc(N)c2nc(S)n(Cc3ccccc3)c2n1
minimal effective concentration [5]: 0.001 µM
